From patent US20250250251A1, “PIPERIDINYLPYRIDINYLCARBONITRILE DERIVATIVES AS INHIBITORS OF GLUTAMINYL-PEPTIDE CYCLOTRANSFERASE AND GLUTAMINYL-PEPTIDE CYCLOTRANSFERASE LIKE PROTEIN” (Boehringer Ingelheim International GmbH, priority 2024, published 2025)
Like-named read-outs stand apart in the source and are kept apart here.

Legend:
murine hepatocytes = assay: Assay E: stability in murine hepatocytes; format: in vitro ADME, mouse; settings: 1 μM, 5% species serum
Procedure: The metabolic degradation of the test compound is assayed in a murine hepatocyte suspension.
Murine hepatocytes (typically cryopreserved) are incubated in an appropriate buffer system (e.g. Dulbecco's modified eagle medium plus 3.5 μg glucagon/500 mL, 2.5 mg insulin/500 mL and 3.75 mg/500 mL hydrocortison) containing 5% species serum.
Following a (typically) 30 min preincubation in an incubator (37° C., 10% CO2) 5 μl of test compound solution (80 μM; from 2 mM in DMSO stock solution diluted 1:25 with medium) are added into 395 μl hepatocyte suspension (cell density in the range 0.25-5 Mio cells/mL, typically 1 Mio cells/mL; final concentration of test compound 1 μM, final DMSO concentration 0.05%).
The cells are incubated for six hours (incubator, orbital shaker) and samples (25 μl) are taken at 0, 0.5, 1, 2, 4 and 6 hours. Samples are transferred into acetonitrile and pelleted by centrifugation (5 min). The supernatant is transferred to a new 96-deepwell plate, evaporated under nitrogen and resuspended.
Decline of parent compound is analyzed by HPLC-MS/MS
CLint is calculated as follows CL_[…]=Dose/AUC=(C0/CD)/(AUD+clast/k)×1000/60. C0: initial concentration in the incubation [μM], CD: cell density of vital cells [10e6 cells/mL], AUD: area under the data [μM×h], clast: concentration of last data point [μM], k: slope of the regression line for parent decline [h−1].
The calculated in vitro hepatic intrinsic clearance can be scaled up to the intrinsic in vivo hepatic Clearance and used to predict hepatic in vivo blood clearance (CL) by the use of a liver model (well stirred model).
[formula] [formula] [formula] • Hepatocellularity, mouse: 120×10e6 cells/g liver • Liver factor, mouse: 55 g/kg bodyweight • Blood flow, mouse: 90 ml/(min×kg)

[1] = tested on: SIRPα signalling induced by A549 cells; assay: Assay B: SIRPα signalling assay using A549 cells; format: cell-based; settings: Homo sapiens, read-out: Inhibition of SIRPα signalling induced by A549 cells: IC50
Procedure: Two cell types are independently used: the Raji cell line (lymphoblast-like human cell line derived from B lymphocytes from a Burkitt's lymphoma patient in 1963) and A549 cells (adenocarcinoma human alveolar basal epithelial cells).
Test compounds were dissolved in 100% DMSO and serially diluted into a white 384-well microtiter cell culture plate (PerkinElmer #60076780 in case of Raji assay; PDL-coated plates Greiner #781945 in case of A549 assay). 5000 Raji cells (ATCC #CC86) or 5000 A549 cells (ATCC #CCL-185) in Assay Complete Cell Plating reagent 30 (DiscoverX 93-0563R30B) were added per well. The assay plate was incubated for 48 h at 37° C., 95% humidity and 5% CO2. 15000 reporter cells (Jurkat PathHunter SIRPαV1, DiscoverX #93-1135C19) were added to each well, and the plate was incubated for 5 h at 37° C., 95% humidity and 5% CO2. Bioassay reagent 1 of the PathHunter Bioassay detection kit (DiscoverX 93-0001) was added to each well of the plate using a multichannel pipette followed by a 15 min incubation at room temperature. Afterwards bioassay reagent 2 was added followed by 60 min incubation at room temperature (incubation in the dark).
The analysis of the data was performed using the luminescence signal generated by beta-galactosidase in the PathHunter reporter cell line. The luminescence measurement was done using a Pherastar Multi-Mode Reader. Dose-response curves & IC50 data were calculated with 4-parameter sigmoidal dose response formula.

QPCTL = target: T1, QPCTL (Homo sapiens, UniProt Q9NXS2); assay: Assay A: biochemical QPCTL activity assay (MALDI-TOF MS, CD47 peptide substrate); settings: read-out: Inhibition of QPCTL: IC50
T1 construct: made in house
Procedure: (§1) QPCT or QPCTL dependent conversion of N-terminal glutamine to pyroglutamate of CD47 was monitored via MALDI-TOF MS. Test compounds were dissolved in 100% DMSO and serially diluted into clear 1,536-well microtiter plates. Enzymatic reactions were set up in assay buffer containing 20 mM Tris pH 7.5, 0.1 mM TCEP, 0.01% BSA, and 0.001% Tween20. […] The plates were incubated for 10 min in a humidified incubator at 24° C. Subsequently, 2.5 μL of CD47 peptide substrate surrogate (^19[…]^33) was added to each well (final concentration: 10 μM for QPCTL/20 μM for QPCT). The plates were mixed for 30 sec at 1,000 rpm and subsequently incubated for 40 min in a humidified incubator at 24° C. […] The plates were sealed with an adhesive foil, mixed for 30 s at 1,000 rpm and stored at room temperature until preparation of the MALDI target plates. MALDI target plates were prepared as described previously. […] QPCT or QPCTL activity was monitored by calculating the ratio between product and internal standard signals followed by normalization to high (100% activity) and low (0% activity) controls. Determination of compound potencies was obtained by fitting the dose-response data to a four-parameter logistical equation.

QPCT = target: T2, QPCT (Homo sapiens, UniProt Q16769); assay: Assay A: biochemical QPCT activity assay (MALDI-TOF MS, CD47 peptide substrate); settings: read-out: Inhibition of QPCT: IC50
T2 construct: purchased Origine (OriGene) TP700028
Procedure: as §1

CYP3A4 mRNA = assay: Assay D: CYP induction screening assay in primary human hepatocytes; format: in vitro ADME; settings: 48 h
Procedure: Cryopreserved plateable human hepatocytes (single donor. BioIVT) were thawed and plated in Collagen-I coated 96-well-plates at a cell density of 0.07 million cells per well.
After a 6 h attachment period, the seeding medium was replaced by serum-free William's medium E supplemented with Matrigel (0.25 mg/ml) and allowed to recover overnight. 24 h post-seeding, serum-free Williams E medium containing the test compound at a final concentration of […] and a final DMSO content of 0.1% and 0.1% DMSO (solvent-treated control), respectively, was added to predefined wells. Exposure solutions were renewed after 24 h.
After 48 h of treatment in total, the effect of the test compounds on CYP3A4 mRNA expression was assessed using the QuantiGene Plex Gene Expression Assay. Hepatocytes were lysed and total RNA was extracted using the QuantiGene Sample Processing Kit according to the instructions of the manufacturer.
mRNA quantification was conducted using a customized QuantiGene Plex Panel to analyse CYP3A4 and the housekeeper genes RPL32, EIF4E2 and GUSB according to the instructions of the manufacturer and measured on a Luminex™ instrument. Signal was reported as median fluorescence intensity (MFI), which is proportional to the number of target RNA molecules present in the sample.
For calculation of CYP3A4 mRNA induction, the signal for CYP3A4 was normalized against the geometric mean of the signal obtained for the housekeeper genes for hepatocytes exposed to test compounds in relation to solvent-treated samples according to the following equation: […]

[2] = Assay C: permeability in CACO-2 cells; format: in vitro ADME; settings: human; for efflux ratio: read-out: Efflux Ratio
Procedure: Caco-2 cells (1-2×10^5 cells/1 cm^2 area) are seeded on filter inserts (Costar transwell polycarbonate or PET filters, 0.4 μm pore size) and cultured (DMEM) for 10 to 25 days. Compounds are dissolved in appropriate solvent (like DMSO, 1-20 mM stock solutions). […] The transport solution (TL) is applied to the apical or basolateral donor side for measuring A-B or B-A permeability (3 filter replicates), respectively. Samples are collected at the start and end of experiment from the donor and at various time intervals for up to 2 hours also from the receiver side for concentration measurement by HPLC-MS/MS or scintillation counting. Sampled receiver volumes are replaced with fresh receiver solution.
Efflux ratio (ER)=permeability B−A/permeability A−B

[3] = tested on: SIRPα signalling induced by Raji cells; assay: Assay B: SIRPα signalling assay using Raji cells; format: cell-based; settings: Homo sapiens, read-out: Inhibition of SIRPα signalling induced by Raji cells: IC50
Procedure: Bioassay reagent 1 of the PathHunter Bioassay detection kit (DiscoverX 93-0001) was added to each well of the plate using a multichannel pipette followed by a 15 min incubation at room temperature. Afterwards bioassay reagent 2 was added followed by 60 min incubation at room temperature (incubation in the dark).
The analysis of the data was performed using the luminescence signal generated by beta-galactosidase in the PathHunter reporter cell line. The luminescence measurement was done using a Pherastar Multi-Mode Reader.

[4] = Table 12, compounds of the invention
[5] = Table 4, compounds of the invention
[6] = Table 2, compounds of the invention
[7] = Table 9, compounds of the invention
[8] = pH 7.2, Table 7, compounds of the invention, CACO-2 cells
[9] = pH 7.2, Table 7, compounds of the invention, CACO-2 cells, permeability B-A/permeability A-B

T1 sequence (Q9NXS2 whole entry, species assumed): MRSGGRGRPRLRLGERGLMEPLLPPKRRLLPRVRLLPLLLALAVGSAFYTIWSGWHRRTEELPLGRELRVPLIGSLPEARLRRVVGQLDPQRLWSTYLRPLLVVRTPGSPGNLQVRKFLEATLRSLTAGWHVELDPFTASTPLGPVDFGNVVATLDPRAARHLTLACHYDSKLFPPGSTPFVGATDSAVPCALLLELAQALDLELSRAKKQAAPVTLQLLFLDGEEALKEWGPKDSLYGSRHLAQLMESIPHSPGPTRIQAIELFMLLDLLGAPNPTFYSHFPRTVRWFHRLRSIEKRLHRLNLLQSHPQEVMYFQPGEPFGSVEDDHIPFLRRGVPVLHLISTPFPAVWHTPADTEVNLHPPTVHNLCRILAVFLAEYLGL
T2 sequence (Q16769 29-361): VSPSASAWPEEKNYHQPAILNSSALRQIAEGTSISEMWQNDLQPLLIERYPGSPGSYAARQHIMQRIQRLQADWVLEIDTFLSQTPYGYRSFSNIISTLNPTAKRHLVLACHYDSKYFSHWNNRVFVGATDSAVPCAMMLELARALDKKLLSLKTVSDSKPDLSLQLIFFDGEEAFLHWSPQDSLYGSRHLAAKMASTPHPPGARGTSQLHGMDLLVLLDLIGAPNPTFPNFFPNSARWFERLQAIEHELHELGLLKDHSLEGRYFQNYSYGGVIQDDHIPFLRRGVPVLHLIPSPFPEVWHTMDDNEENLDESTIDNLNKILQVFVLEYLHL

SMILES	Mouse Hepatocyte Stability QH (murine hepatocytes; Table 13, prior art compounds)	IC50 ([1]; Table 5, prior art compounds)	IC50 (QPCTL; Table 3, prior art compounds)	IC50 (QPCT; Table 3, prior art compounds)	n-fold induction of CYP3A4 at 10 μM (CYP3A4 mRNA; Table 10, prior art compounds)	Papp A→B ([2]; Caco-2, pH 7.2)	efflux ratio ([2]; Caco-2, pH 7.2)	IC50 ([3]; Table 5, prior art compounds)	Mouse Hepatocyte Stability QH (murine hepatocytes; [4])	IC50 [1, 5]	IC50 (QPCTL; [6])	IC50 (QPCT; [6])	n-fold induction of CYP3A4 at 10 μM (CYP3A4 mRNA; [7])	Papp A→B [2, 8]	efflux ratio [2, 9]	IC50 [3, 5]
Cn1cnnc1C1CCN(c2c(C#N)cccc2-c2ccc3ocnc3c2)CC1 [Compound 15, reference compound]	65%	3150 nM	554 nM	1080 nM	8.7 n-fold	11 ×10⁻⁶ cm/s	5.4	5990 nM	–	–	–	–	–	–	–	–
Cn1cnnc1C1(F)CCN(c2c(C#N)cc(-c3cccnc3)nc2-c2cnc3nn(C(F)(F)F)cc3c2)CC1 [Example 21]	–	–	–	–	–	–	–	–	35%	24 nM	1 nM	2 nM	0.7 n-fold	6.8 ×10⁻⁶ cm/s	11.9	78 nM
Cn1cnnc1C1(F)CCN(c2c(C#N)cc(C(F)(F)F)nc2-c2cnc3nn(C)c(C(F)(F)F)c3c2)CC1 [Example 10]	–	–	–	–	–	–	–	–	53%	49 nM	8 nM	13 nM	5.2 n-fold	11 ×10⁻⁶ cm/s	6.6	160 nM
Cn1cnnc1C1(F)CCN(c2c(C#N)cc(C3CC3)nc2-c2ccnnc2)CC1 [Example 1]	–	–	–	–	–	–	–	–	49%	15 nM	1 nM	2 nM	1.2 n-fold	6.3 ×10⁻⁶ cm/s	7	107 nM
Cn1cnnc1C1(F)CCN(c2c(C#N)cc(C(F)(F)F)nc2-c2cnc3nn(C(C)(C)C)cc3c2C(F)F)CC1 [Example 15]	–	–	–	–	–	–	–	–	<12%	1 nM	12 nM	9 nM	14.2 n-fold	7.6 ×10⁻⁶ cm/s	10.9	3 nM
Cc1nn(C)c(C)c1-c1cc(C#N)c(N2CCC(F)(c3nncn3C)CC2)c(-c2cnc3nn(C(F)(F)F)cc3c2)n1 [Example 23]	–	–	–	–	–	–	–	–	<12%	43 nM	1 nM	2 nM	1.1 n-fold	4.1 ×10⁻⁶ cm/s	16.3	169 nM
Cc1cc(C#N)c(N2CCC(F)(c3nncn3C)CC2)c(-c2cnc3nn(C(F)(F)F)cc3c2)n1 [Example 5]	–	–	–	–	–	–	–	–	16%	6 nM	1 nM	3 nM	2.1 n-fold	3.3 ×10⁻⁶ cm/s	13	31 nM
Cn1cnnc1C1(F)CCN(c2c(C#N)cc(C3CC3)nc2-c2cnc3nn(C)c(C(F)(F)F)c3c2)CC1 [Example 11]	–	–	–	–	–	–	–	–	32%	37 nM	3 nM	3 nM	5.0 n-fold	32 ×10⁻⁶ cm/s	2.5	167 nM
Cn1cnnc1C1CCN(c2c(C#N)cccc2-c2cnc3cn[nH]c3c2)CC1 [Compound 125, reference compound]	45%	> 10000 nM	159 nM	446 nM	2.1 n-fold	0.6 ×10⁻⁶ cm/s	30.4	4490 nM	–	–	–	–	–	–	–	–
Cn1cc(-c2cc(C#N)c(N3CCC(F)(c4nncn4C)CC3)c(-c3cnc4nn(C(F)(F)F)cc4c3)n2)cn1 [Example 24]	–	–	–	–	–	–	–	–	<12%	27 nM	2 nM	3 nM	1.1 n-fold	3.4 ×10⁻⁶ cm/s	17.9	73 nM
Cc1ncc(-c2cc(C#N)c(N3CCC(F)(c4nncn4C)CC3)c(-c3cnc4nn(C(F)(F)F)cc4c3)n2)o1 [Example 19]	–	–	–	–	–	–	–	–	<12%	25 nM	2 nM	2 nM	1.1 n-fold	8.1 ×10⁻⁶ cm/s	7.2	139 nM
